Assay results published in US20170050966A1, “INHIBITING THE TRANSIENT RECEPTOR POTENTIAL A1 ION CHANNEL” (HYDRA BIOSCIENCES, INC., priority 2014, published 2017).

Legend:
[1] = Oral PK and bioavailability of micronized Compound 2 suspension; assay type: in vivo, dogs (beagles); conditions: fasted dogs
Experimental: Additional studies were conducted with micronized Compound 2 in rat, dogs (beagles), and cynomolgus monkeys. Animals received a 10 mg/kg dose oral dose of compound formulated as a suspension in 0.5% methyl cellulose in water for injection at a target concentration of 1 mg/mL, and administered a dose volume of 10 mL/kg by oral gavage in rats or fasted dogs and via oral delivery in fasted cynomolgus monkeys. The % F for the rats in these studies was 85%, 36% for the dogs, and 19% for the monkeys. FIG. 11 depicts the pharmacokinetic profile for these species.
Three studies were conducted in dogs (beagles). In one study, three fasted dogs were administered 10 mg/kg of a suspension of micronized Compound 2 by gavage. Blood samples were collected from these dogs before dosing and at 0.25, 0.50, 1, 2, 4, 6, 8, 12, and 24 hours post-administration. Blood samples were analyzed to determine plasma levels of Compound 2 by LC/MS/MS. In subsequent studies, pharmacokinetic (PK) parameters were determined following a single oral dose of suspensions of micronized Compound 2 (recrystallized from ethanol) administered to fasted dogs at dose levels of 10, 100, 300, 600, or 1000 mg/kg. Blood samples were taken before dosing and at 0.5, 1, 2, 4, 8, 12, 24 and 48 hours post-dosing and analyzed to determine plasma levels of Compound 2.

CYP1A2 = target: T1, CYP1A2 (Homo sapiens, UniProt P05177); test: CYP450 inhibition at 10 μM; assay type: biochemical; conditions: probe Phenacetin, 1A2, substrate Phenacetin
T1 sequence (P05177 1-516): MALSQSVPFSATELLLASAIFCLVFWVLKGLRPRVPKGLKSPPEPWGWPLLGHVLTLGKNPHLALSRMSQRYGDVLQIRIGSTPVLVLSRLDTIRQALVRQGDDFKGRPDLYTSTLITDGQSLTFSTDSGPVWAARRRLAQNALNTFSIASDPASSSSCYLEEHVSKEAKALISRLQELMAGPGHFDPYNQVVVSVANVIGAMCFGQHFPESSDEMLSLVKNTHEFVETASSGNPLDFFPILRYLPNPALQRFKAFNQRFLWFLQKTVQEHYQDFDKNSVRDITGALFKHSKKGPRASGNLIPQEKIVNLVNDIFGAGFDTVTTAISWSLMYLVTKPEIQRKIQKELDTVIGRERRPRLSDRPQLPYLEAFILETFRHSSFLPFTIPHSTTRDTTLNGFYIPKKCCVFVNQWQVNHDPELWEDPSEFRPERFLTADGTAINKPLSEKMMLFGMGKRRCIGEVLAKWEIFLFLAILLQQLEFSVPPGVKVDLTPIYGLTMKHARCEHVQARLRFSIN

CYP3A4 = CYP3A4 (Homo sapiens, UniProt P08684); test: CYP450 inhibition at 10 μM; assay type: biochemical
Sequence of CYP3A4 (P08684 whole entry): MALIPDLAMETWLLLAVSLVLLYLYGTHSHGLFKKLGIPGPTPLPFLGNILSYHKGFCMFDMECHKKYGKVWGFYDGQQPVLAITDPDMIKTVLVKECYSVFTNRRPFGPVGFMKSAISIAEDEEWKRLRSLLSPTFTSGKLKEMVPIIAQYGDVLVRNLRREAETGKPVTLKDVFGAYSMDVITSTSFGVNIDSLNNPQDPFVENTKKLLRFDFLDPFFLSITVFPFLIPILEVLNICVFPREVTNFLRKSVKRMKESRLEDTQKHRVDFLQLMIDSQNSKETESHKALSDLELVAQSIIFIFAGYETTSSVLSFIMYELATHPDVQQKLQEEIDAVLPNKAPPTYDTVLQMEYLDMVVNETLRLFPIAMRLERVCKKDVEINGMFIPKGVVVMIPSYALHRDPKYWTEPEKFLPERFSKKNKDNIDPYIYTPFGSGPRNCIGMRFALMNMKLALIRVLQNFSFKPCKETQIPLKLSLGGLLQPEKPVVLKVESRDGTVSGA

[2] = Storage stability of anhydrous solid crystalline form (XRPD); assay type: physicochemical; conditions: Form B, ambient conditions for three months
From the text: After storage of this solid crystalline form at ambient conditions for three months, the sample was subjected to XRPD analysis again.

CYP2B6 = CYP2B6 (Homo sapiens, UniProt P20813); test: in vitro; conditions: probe Buproprion
Sequence of CYP2B6 (P20813 whole entry): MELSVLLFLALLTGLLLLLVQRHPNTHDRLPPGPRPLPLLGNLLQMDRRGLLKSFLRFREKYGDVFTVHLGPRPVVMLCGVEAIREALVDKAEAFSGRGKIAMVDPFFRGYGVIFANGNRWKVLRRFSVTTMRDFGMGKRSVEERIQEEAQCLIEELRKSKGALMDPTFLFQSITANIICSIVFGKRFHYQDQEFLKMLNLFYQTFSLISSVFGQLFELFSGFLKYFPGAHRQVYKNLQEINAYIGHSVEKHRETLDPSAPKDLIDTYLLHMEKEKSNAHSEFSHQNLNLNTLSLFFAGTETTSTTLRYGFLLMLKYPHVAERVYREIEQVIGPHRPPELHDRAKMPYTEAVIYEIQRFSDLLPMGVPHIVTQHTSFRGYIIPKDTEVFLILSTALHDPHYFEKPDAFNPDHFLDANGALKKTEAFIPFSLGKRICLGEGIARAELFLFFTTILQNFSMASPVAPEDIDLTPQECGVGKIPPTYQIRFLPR

CYP2C19 = CYP2C19 (Homo sapiens, UniProt P33261); test: in vitro; conditions: probe Mephenytoin
Sequence of CYP2C19 (P33261 whole entry): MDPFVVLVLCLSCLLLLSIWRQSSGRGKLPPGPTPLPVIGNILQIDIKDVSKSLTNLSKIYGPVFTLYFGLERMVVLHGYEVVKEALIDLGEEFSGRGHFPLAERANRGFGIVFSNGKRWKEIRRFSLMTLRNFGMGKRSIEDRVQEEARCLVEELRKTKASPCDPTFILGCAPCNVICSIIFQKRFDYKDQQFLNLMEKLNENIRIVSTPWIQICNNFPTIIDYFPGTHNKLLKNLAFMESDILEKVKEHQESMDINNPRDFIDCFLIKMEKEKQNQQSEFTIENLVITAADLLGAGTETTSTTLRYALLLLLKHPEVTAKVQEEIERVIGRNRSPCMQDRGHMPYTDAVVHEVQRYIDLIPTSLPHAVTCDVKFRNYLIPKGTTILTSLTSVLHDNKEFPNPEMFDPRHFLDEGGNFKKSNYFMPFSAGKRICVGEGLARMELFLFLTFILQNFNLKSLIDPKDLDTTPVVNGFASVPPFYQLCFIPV

CYP2D6 = CYP2D6 (Homo sapiens, UniProt P10635); test: in vitro; conditions: probe Dextromethorphan
Sequence of CYP2D6 (P10635 whole entry): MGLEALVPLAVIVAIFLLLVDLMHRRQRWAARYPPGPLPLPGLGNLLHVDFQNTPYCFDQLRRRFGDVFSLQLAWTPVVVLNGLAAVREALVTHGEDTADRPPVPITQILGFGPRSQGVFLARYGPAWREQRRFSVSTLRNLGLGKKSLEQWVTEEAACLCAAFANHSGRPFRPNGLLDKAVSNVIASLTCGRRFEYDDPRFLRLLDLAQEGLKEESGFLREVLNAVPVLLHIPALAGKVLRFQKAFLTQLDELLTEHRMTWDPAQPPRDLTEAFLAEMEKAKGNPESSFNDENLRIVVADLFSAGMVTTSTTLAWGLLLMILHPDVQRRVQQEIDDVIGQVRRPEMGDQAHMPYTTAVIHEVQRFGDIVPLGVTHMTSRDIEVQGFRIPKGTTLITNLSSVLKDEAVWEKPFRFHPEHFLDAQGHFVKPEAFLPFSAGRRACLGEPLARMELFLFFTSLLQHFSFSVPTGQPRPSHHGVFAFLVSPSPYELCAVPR

C[C@@H](C(=O)Nc1ccnc(-c2cnc(N3CCC[C@H]3C(F)(F)F)nc2)n1)n1cnc2c1c(=O)n(C)c(=O)n2C [Compound 2, (S)-2-(1,3-dimethyl-2,6-dioxo-2,3-dihydro-1H-purin-7(6H)-yl)-N-(2′-((S)-2-(trifluoromethyl)pyrrolidin-1-yl)-[2,5′-bipyrimidin]-4-yl)propanamide]
bioavailability ([1]; beagle, dog, plasma, 10 mg/kg oral, micronized suspension): 36%
Exposures on an AUC and Cmax basis versus dose ([1]; single oral dose 10 to 1000 mg/kg): increased with doses up to 600 mg/kg
inhibition at 10 µM (CYP1A2): 9%
inhibition at 10 µM (CYP3A4; probe Midazolam, 3A4, substrate Midazolam): 0%
inhibition at 10 µM (CYP3A4; probe Testosterone, 3A4, substrate Testosterone): 2.8%
XRPD pattern after storage [2]: matches the original indexed pattern
inhibition at 10 µM (CYP2B6): 15.1%
inhibition at 10 µM (CYP2C19): 37.1%
inhibition at 10 µM (CYP2D6): 9.5%
